Measured values published in article PMC7993375, “Discovery of novel quinoline-based analogues of combretastatin A-4 as tubulin polymerisation inhibitors with apoptosis inducing activity and potent anticancer effect” (Journal of Enzyme Inhibition and Medicinal Chemistry, 2021).

How the values were obtained:
HeLa = test: MTT cell viability assay, HeLa cervical adenocarcinoma cells; format: cell-based; conditions: Homo sapiens, 72 h
Method: (§1) The four human tumour cell lines MCF-7, HCT-116, HL-60 and HeLa used in this study were obtained from the VACSERA (Giza, Egypt) cell culture unit that were originally acquired from ATCC (Manassas, VA, USA). All the human tumour cell lines were cultured in Dulbecco’s Modified Eagle’s Medium (DMEM) with 10% foetal bovine serum, 2 mM L-glutamine and 100 µg/mL penicillin/streptomycin. Cells were maintained at 37 °C in 5% CO2 in a humidified incubator. All cells were sub-cultured 3 times/week by trypsinisation using TrypLE Express (1X).
(§2) The quinoline compounds were evaluated for antiproliferative effect using the MTT viability assay of four cancer cell lines (MCF-7, HCT-116, HL-60 and HeLa) and normal breast cells MCF-10A to calculate the relative IC50 values for each compound. Cells were seeded in triplicate in 96-well plates at a density of 10 × 10^3 cells/ml in a total volume of 200 µl per well. 0.1% of DMSO was used as a vehicle control. Following, the cells were treated with 2 µl test compound (from stock solutions in ethanol) to furnish the concentration range of study, 1 nM to 50 µM, and re-incubated for a further 72 h. The culture medium was then removed, and the cells washed with 100 µL phosphate buffered saline (PBS) and 50 µL MTT added, to reach a final concentration of 1 mg/mL. Cells were incubated for 2 h in darkness at 37 °C. Solubilisation was begun through the addition of […] DMSO, and the cells maintained at room temperature in darkness for 20 min to ensure thorough colour diffusion before reading the absorbance. Plates were incubated for 72 h at 37 °C + 5% CO2. The MTT (5 mg/mL in PBS) was added and incubated for another 4 h, and the optical density was detected with a microplate reader at 570 nm. Results were expressed as percentage viability relative to vehicle control (100%). Dose response curves were plotted and IC50 values (concentration of drug resulting in 50% reduction in cell survival) were obtained using the commercial software package Prism (GraphPad Software, Inc., La Jolla, CA, USA). All the experiments were repeated in at least three independent experiments.

bovine brain tubulin = test: Tubulin polymerisation assay; format: biochemical; conditions: for IC50: Tubulin was at 10 µM, read-out: Tubulin assembly IC50 (inhibition of tubulin polymerisation)
Method: The assembly of purified bovine tubulin was monitored using a kit, BK006, purchased from Cytoskeleton Inc., (Denver, CO, USA). The assay was carried out in accordance with the manufacturer’s instructions using the standard assay conditions. Briefly, purified ([…]) in a buffer consisting of 80 mM PIPES (pH 6.9), 0.5 mM EGTA, 2 mM MgCl2, 1 mM GTP and 10% glycerol was incubated at 37 °C in the presence of either vehicle (2% (v/v) ddH2O), CA-4, or the quinoline compounds. Light is scattered proportionally to the concentration of polymerised microtubules in the assay. Therefore, tubulin assembly was monitored turbidimetrically at 340 nm in a Spectramax 340 PC spectrophotometer (Molecular Devices, Sunnyvale, CA, USA). The concentration that inhibits tubulin polymerisation by 50% (IC50) was determined using area under the curve (AUC). The AUC of the untreated controls were considered as 100% polymerisation. The IC50 value for each compound was computed using GraphPad Prism Software.

HCT-116 = test: MTT cell viability assay, HCT-116 colorectal carcinoma cells; format: cell-based; conditions: Homo sapiens, 72 h
Method: as §1, §2

MCF-7 = test: MTT cell viability assay, MCF-7 breast adenocarcinoma cells; format: cell-based; conditions: Homo sapiens, MCF7, 72 h, read-out: IC50 value, MCF-7
Method: as §1, §2

HL-60 = test: MTT cell viability assay, HL-60 leukaemia cells; format: cell-based; conditions: Homo sapiens, 72 h, read-out: IC50 value, HL-60
Method: as §1, §2

[1] = test system: MCF-7, HL-60, HCT-116 and HeLa; test: MTT cell viability assay, statements over all four cancer cell lines; format: cell-based, human
Method: as §1, §2

Compound	melting point [°C]	IC50 (HeLa) [nM]	IC50 (bovine brain tubulin) [nM]	IC50 (HCT-116) [nM]	IC50 (MCF-7) [nM]	IC50 (HL-60) [nM]	IC50 ([1]; Homo sapiens) [nM]	IC50 over all four cancer cell lines [1]	fold less active than CA-4 (tubulin assembly) (bovine brain tubulin) [fold]	fold less active than 12c (tubulin polymerisation) (bovine brain tubulin) [fold]
COc1cc(C2=NC(=Cc3cc4ccccc4nc3OC)C(=O)O2)cc(OC)c1OC [Compound 12a, 4-[(2-Methoxyquinolin-3-yl)methylene]-2–(3,4,5-trimethoxyphenyl)oxazol-5(4H)-one]	215 to 217	2110 ± 34	14000	2010 ± 80	1710 ± 40	3309 ± 22	–	–	6	–
COc1cc(C2=NC(=Cc3cc4cc(C)ccc4nc3OC)C(=O)O2)cc(OC)c1OC [Compound 12b, 4-[(2-Methoxy-6-methylquinolin-3-yl)methylene]-2–(3,4,5-trimethoxyphenyl) oxazol-5(4H)-one]	218 to 220	117 ± 85	–	184 ± 7	132 ± 13	197 ± 41	–	–	–	–
COc1cc(C2=NC(=Cc3cc4cccc(C)c4nc3OC)C(=O)O2)cc(OC)c1OC [Compound 12d, 4-[(2-Methoxy-8-methylquinolin-3-yl)methylene]-2–(3,4,5-trimethoxyphenyl) oxazol-5(4H)-one]	236 to 238	153 ± 83	–	191 ± 1	154 ± 71	268 ± 93	–	–	–	–
COc1ccc2nc(OC)c(/C=C3\N=C(c4cc(OC)c(OC)c(OC)c4)OC3=O)cc2c1 [Compound 12e]	242 to 244	10 ± 4	2260	31 ± 1	56 ± 27	68 ± 34	–	–	–	–
COc1ccc2cc(C=C3N=C(c4cc(OC)c(OC)c(OC)c4)OC3=O)c(OC)nc2c1 [Compound 12f, 4-[(2,7-Dimethoxyquinolin-3-yl)methylene]-2–(3,4,5-trimethoxyphenyl)oxazol-5(4H)-one]	221 to 223	138 ± 26	–	66 ± 5	52 ± 2.1	352 ± 21	–	–	–	–
COc1cc(C2=NC(=Cc3cc4ccc(OC(C)C)cc4nc3OC)C(=O)O2)cc(OC)c1OC [Compound 12g, 4-[(7-Isopropoxy-2-methoxyquinolin-3-yl)methylene]-2–(3,4,5-trimethoxyphenyl)oxazol-5(4H)-one]	227 to 229	1750 ± 500	8230	7880 ± 300	1510 ± 220	1820 ± 640	–	–	4	–
COc1cc(C2=NC(=Cc3cc4ccc(OCc5ccccc5)cc4nc3OC)C(=O)O2)cc(OC)c1OC [Compound 12h, 4-[(7-(Benzyloxy)-2-methoxyquinolin-3-yl)methylene]-2–(3,4,5-trimethoxyphenyl)oxazol-5(4H)-one]	247 to 249	1050 ± 840	–	1560 ± 720	1930 ± 612	4660 ± 260	–	–	–	–

Now from value to compound, other results behind:

melting point [°C]	IC50 (HeLa) [nM]	IC50 (bovine brain tubulin) [nM]	IC50 (HCT-116) [nM]	IC50 (MCF-7) [nM]	IC50 (HL-60) [nM]	IC50 ([1]; Homo sapiens) [nM]	IC50 over all four cancer cell lines [1]	Compound	fold less active than CA-4 (tubulin assembly) (bovine brain tubulin) [fold]	fold less active than 12c (tubulin polymerisation) (bovine brain tubulin) [fold]
230 to 232	1410 ± 96	–	8210 ± 7.7	1030 ± 55	1560 ± 55	> 1000	–	COc1cc(C2=NC(=Cc3cc4ccccc4nc3OC)C(=O)N2)cc(OC)c1OC [Compound 13a, 5-[(2-Methoxyquinolin-3-yl)methylene]-2–(3,4,5-trimethoxyphenyl)-3,5-dihydro-4H-imidazol-4-one]	–	–
223 to 225	188 ± 13	–	173 ± 25	63 ± 1.1	240 ± 12	–	submicromolar	COc1cc(C2=NC(=Cc3cc4cc(C)ccc4nc3OC)C(=O)N2)cc(OC)c1OC [Compound 13b, 5-[(2-Methoxy-6-methylquinolin-3-yl)methylene]-2–(3,4,5-trimethoxyphenyl)-3,5-dihydro-4H-imidazol-4-one]	–	–
236 to 238	733 ± 91	20300	284 ± 83	223 ± 56	661 ± 26	–	submicromolar	COc1cc(C2=NC(=Cc3cc4ccc(C)cc4nc3OC)C(=O)N2)cc(OC)c1OC [Compound 13c, 5-[(2-Methoxy-7-methylquinolin-3-yl)methylene]-2–(3,4,5-trimethoxyphenyl)-3,5-dihydro-4H-imidazol-4-one]	–	16
233 to 235	126 ± 44	–	109 ± 11	137 ± 23	96 ± 6	–	submicromolar	COc1cc(C2=NC(=Cc3cc4cccc(C)c4nc3OC)C(=O)N2)cc(OC)c1OC [Compound 13d, 5-[(2-Methoxy-8-methylquinolin-3-yl)methylene]-2–(3,4,5-trimethoxyphenyl)-3,5-dihydro-4H-imidazol-4-one]	–	–
253 to 255	62 ± 3	1480	85 ± 3	42 ± 2.5	272 ± 50	–	–	COc1ccc2nc(OC)c(C=C3N=C(c4cc(OC)c(OC)c(OC)c4)NC3=O)cc2c1 [Compound 13e, 5-[(2,6-Dimethoxyquinolin-3-yl)methylene]-2–(3,4,5-trimethoxyphenyl)-3,5-dihydro-4H-imidazol-4-one]	–	–
241 to 243	101 ± 90	–	187 ± 9	92 ± 6.2	210 ± 98	–	–	COc1ccc2cc(C=C3N=C(c4cc(OC)c(OC)c(OC)c4)NC3=O)c(OC)nc2c1 [Compound 13f, 5-[(2,7-Dimethoxyquinolin-3-yl)methylene]-2–(3,4,5-trimethoxyphenyl)-3,5-dihydro-4H-imidazol-4-one]	–	–
238 to 240	4440 ± 600	–	1620 ± 950	5560 ± 133	5110 ± 410	–	–	COc1cc(C2=NC(=Cc3cc4ccc(OC(C)C)cc4nc3OC)C(=O)N2)cc(OC)c1OC [Compound 13g, 5-((7-Isopropoxy-2-methoxyquinolin-3-yl)methylene)-2–(3,4,5-trimethoxyphenyl)-3,5-dihydro-4H-imidazol-4-one]	–	–
259 to 261	2070 ± 390	–	2610 ± 430	1700 ± 821	4930 ± 260	–	–	COc1cc(C2=NC(=Cc3cc4ccc(OCc5ccccc5)cc4nc3OC)C(=O)N2)cc(OC)c1OC [Compound 13h, 5-[(7-(Benzyloxy)-2-methoxyquinolin-3-yl)methylene]-2–(3,4,5-trimethoxyphenyl)-3,5-dihydro-4H-imidazol-4-one]	–	–
